Results published in US20240316130A1 (priority 2023, published 2024).
Entries after “also recorded” stand apart in the source; their conditions may differ.

Assays:
MYXV = assay: microbe, parasite or virus in culture; type: cell-based, myxoma virus
B16F10 cells = type: cell-based, murine; conditions: 24 hours
A9F1 cells = type: cell-based

SMILES | arginine concentration at which maximal viral replication occurs (MYXV) | EC50 (MYXV; Myxoma virus, 24 h, read-out: EC50 of exogenous arginine for production of new infectious MYXV progeny) [µM] | rescue of MYXV replication by supplement (B16F10 cells) | rescue of cytostasis by supplement (A9F1 cells)
N=C(N)NCCC[C@H](N)C(=O)O [arginine] | at least 100 μM | ~50 |  | 
NC(=O)NCCC[C@H](N)C(=O)O [citrulline, L-Citrulline] |  |  | support myxoma virus replication; also recorded: could also rescue MYXV replication | could not be rescued
